Experimental data reported in PubChem BioAssay (NCI).
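Exposure lasted 48 hours, with cells grown in 96-well plates and compounds tested at five concentrations. At the TGI there is no net growth.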

What was measured:
Assay in all cases: growth of human tumour cells (NCI), 48 h
[1] = tested on: UO-31 renal
[2] = tested on: MDA-MB-231 breast
[3] = tested on: TK-10 renal
[4] = tested on: MDA-MB-435
[5] = tested on: SNB-19 CNS
[6] = tested on: HOP-92 NSCLC
[7] = tested on: LOX IMVI melanoma
[8] = tested on: PC-3 prostate
[9] = tested on: BT-549 breast
[10] = tested on: 786-0 renal
[11] = tested on: NCI-H522 lung
[12] = tested on: NCI-H460 lung
[13] = tested on: COLO 205 colon
[14] = tested on: UACC-257 melanoma
[15] = tested on: NCI/ADR-RES ovarian
[16] = tested on: MCF7 breast
[17] = tested on: HS 578T breast
[18] = tested on: K-562 leukemia
[19] = tested on: M14 melanoma
[20] = tested on: IGROV1 ovarian
[21] = tested on: SF-295 CNS
[22] = tested on: HOP-62 NSCLC
[23] = tested on: A549 NSCLC
[24] = tested on: OVCAR-4 ovarian
[25] = tested on: SK-MEL-5 melanoma
[26] = tested on: HCC-2998 colon
[27] = tested on: NCI-H226 lung
[28] = tested on: SF-268 CNS
[29] = tested on: MOLT-4 leukemia
[30] = tested on: UACC-62 melanoma
[31] = tested on: OVCAR-8 ovarian
[32] = tested on: A498 renal
[33] = tested on: OVCAR-3 ovarian
[34] = tested on: HL-60(TB) leukemia
[35] = tested on: SK-MEL-2 melanoma
[36] = tested on: SR leukemia
[37] = tested on: ACHN renal
[38] = tested on: DU-145 prostate
[39] = tested on: CCRF-CEM leukemia
[40] = tested on: OVCAR-5 ovarian
[41] = tested on: MALME-3M melanoma
[42] = tested on: NCI-H23 lung
[43] = tested on: HT29 colon
[44] = tested on: U251 CNS
[45] = tested on: SK-OV-3 ovarian
[46] = tested on: T-47D breast
[47] = tested on: SW-620 colon
[48] = tested on: HCT-116 colon
[49] = tested on: RXF 393 renal
[50] = tested on: HCT-15 colon
[51] = tested on: SNB-75 CNS
[52] = tested on: MDA-N
[53] = tested on: KM12 colon
[54] = tested on: EKVX NSCLC
[55] = tested on: SN12C renal
[56] = tested on: CAKI-1 renal
[57] = tested on: SK-MEL-28 melanoma
[58] = tested on: SF-539 CNS
[59] = tested on: RPMI-8226 leukemia

Compound `O=c1ccn(C/C=C/c2ccccc2)c(=S)n1C/C=C/c1ccccc1` has a TGI [1] of over 100 µM, a TGI [2] of over 100 µM and a TGI [3] of over 100 µM. For the same compound, the TGI [4] was over 100 µM, the TGI [5] was over 100 µM and the TGI [6] was over 100 µM. The TGI [7] was over 100 µM, the TGI [8] was over 100 µM and the TGI [9] was over 100 µM. It also gave a TGI [10] of over 100 µM, a TGI [11] of over 100 µM and a TGI [12] of over 100 µM. For the same compound, the TGI [13] was over 100 µM, the TGI [14] was over 100 µM and the TGI [15] was over 100 µM. The TGI [16] was over 100 µM, the TGI [17] was over 100 µM and the TGI [18] was over 100 µM. It also gave a TGI [19] of over 100 µM, a TGI [20] of over 100 µM and a TGI [21] of over 100 µM. It also gave a TGI [22] of over 100 µM, a TGI [23] of over 100 µM and a TGI [24] of over 100 µM. The TGI [25] was over 100 µM, the TGI [26] was over 100 µM and the TGI [27] was over 100 µM. The TGI [28] was over 100 µM, the TGI [29] was 92.6 µM and the TGI [30] was over 100 µM. It also gave a TGI [31] of over 100 µM, a TGI [32] of over 100 µM and a TGI [33] of over 100 µM. The TGI [34] was 39.4 µM, the TGI [35] was over 100 µM and the TGI [36] was over 100 µM. For the same compound, the TGI [37] was over 100 µM, the TGI [38] was over 100 µM and the TGI [39] was 62.9 µM. For the same compound, the TGI [40] was over 100 µM, the TGI [41] was over 100 µM and the TGI [42] was over 100 µM. It also gave a TGI [43] of over 100 µM, a TGI [44] of over 100 µM and a TGI [45] of over 100 µM. The TGI [46] was over 100 µM, the TGI [47] was over 100 µM and the TGI [48] was over 100 µM. For the same compound, the TGI [49] was 85.6 µM, the TGI [50] was over 100 µM and the TGI [51] was over 100 µM. The TGI [52] was over 100 µM, the TGI [53] was over 100 µM and the TGI [54] was over 100 µM. It also gave a TGI [55] of over 100 µM, a TGI [56] of over 100 µM and a TGI [57] of over 100 µM.

`Cc1cc(-c2nc3cc(F)ccc3s2)ccc1N` was tested, and the TGI [1] was 99.4 µM, the TGI [2] was over 73.6 µM and the TGI [3] was over 4.64 µM. It also gave a TGI [4] of over 100 µM, a TGI [58] of 46.1 µM and a TGI [5] of over 88.5 µM. The TGI [6] was over 78 µM, the TGI [7] was over 100 µM and the TGI [8] was over 76.2 µM. The TGI [9] was over 100 µM, the TGI [10] was over 79.4 µM and the TGI [59] was over 100 µM. It also gave a TGI [11] of over 100 µM, a TGI [12] of over 54.9 µM and a TGI [13] of over 67.3 µM. For the same compound, the TGI [14] was over 69.9 µM, the TGI [15] was over 100 µM and the TGI [16] was 2.72 µM. It also gave a TGI [17] of over 82 µM, a TGI [18] of over 100 µM and a TGI [19] of over 88.8 µM. The TGI [20] was over 100 µM, the TGI [21] was over 100 µM and the TGI [22] was 72 µM. For the same compound, the TGI [23] was over 100 µM, the TGI [25] was over 82.3 µM and the TGI [26] was over 100 µM. The TGI [27] was over 93.6 µM, the TGI [28] was over 90.5 µM and the TGI [29] was over 100 µM. For the same compound, the TGI [30] was over 100 µM, the TGI [31] was over 100 µM and the TGI [32] was 66.8 µM. The TGI [33] was over 68 µM, the TGI [34] was over 100 µM and the TGI [35] was over 68.4 µM. It also gave a TGI [36] of over 100 µM, a TGI [37] of over 87.3 µM and a TGI [38] of over 92.1 µM. It also gave a TGI [39] of over 100 µM, a TGI [40] of over 100 µM and a TGI [41] of over 100 µM. The TGI [42] was over 84.2 µM, the TGI [43] was over 100 µM and the TGI [44] was over 91.7 µM. The TGI [45] was over 100 µM, the TGI [46] was over 100 µM and the TGI [47] was over 100 µM. It also gave a TGI [48] of over 91 µM, a TGI [49] of 52.4 µM and a TGI [50] of over 100 µM. The TGI [51] was over 79.1 µM, the TGI [52] was over 100 µM and the TGI [53] was over 100 µM. The TGI [54] was over 85.3 µM, the TGI [55] was over 100 µM and the TGI [56] was over 94 µM. For the same compound, the TGI [57] was over 100 µM.

`Cc1ccc(NC(=O)c2cccc(OP(=O)(Nc3ccc(C)cc3)Nc3ccc(C)cc3)c2)cc1` was tested, and the TGI [1] was 45.3 µM, the TGI [2] was 16.1 µM and the TGI [3] was 83.4 µM. It also gave a TGI [4] of over 100 µM, a TGI [58] of over 100 µM and a TGI [5] of over 100 µM. It also gave a TGI [6] of 8.93 µM, a TGI [7] of over 100 µM and a TGI [8] of over 100 µM. For the same compound, the TGI [9] was over 100 µM, the TGI [10] was over 100 µM and the TGI [11] was 12 µM. It also gave a TGI [12] of over 100 µM, a TGI [13] of 5.27 µM and a TGI [14] of over 100 µM. The TGI [15] was over 100 µM, the TGI [16] was over 100 µM and the TGI [17] was 79.9 µM. For the same compound, the TGI [18] was over 100 µM, the TGI [19] was 9.08 µM and the TGI [20] was over 100 µM. The TGI [21] was over 100 µM, the TGI [22] was over 100 µM and the TGI [23] was 27.2 µM. The TGI [24] was 61.9 µM, the TGI [25] was over 100 µM and the TGI [26] was over 100 µM. For the same compound, the TGI [27] was 63.6 µM, the TGI [28] was over 100 µM and the TGI [29] was 6.37 µM. The TGI [30] was over 100 µM, the TGI [31] was over 100 µM and the TGI [32] was 62.3 µM. The TGI [33] was over 100 µM, the TGI [34] was over 100 µM and the TGI [35] was over 100 µM. For the same compound, the TGI [36] was 17.1 µM, the TGI [37] was 20.6 µM and the TGI [38] was over 100 µM. The TGI [39] was over 100 µM, the TGI [40] was over 100 µM and the TGI [41] was 39.6 µM. For the same compound, the TGI [42] was over 100 µM, the TGI [43] was 14.9 µM and the TGI [44] was over 100 µM. The TGI [45] was over 100 µM, the TGI [46] was over 100 µM and the TGI [47] was over 100 µM. For the same compound, the TGI [48] was 80.8 µM, the TGI [49] was 6.75 µM and the TGI [50] was over 100 µM. For the same compound, the TGI [51] was 30.6 µM, the TGI [52] was 21.7 µM and the TGI [53] was over 100 µM. It also gave a TGI [54] of over 100 µM, a TGI [55] of over 100 µM and a TGI [56] of over 100 µM. The TGI [57] was over 100 µM.
